According to article PMC9045377, “CpxA Phosphatase Inhibitor Activates CpxRA and Is a Potential Treatment for Uropathogenic Escherichia coli in a Murine Model of Infection” (Microbiology Spectrum, 2022):
“Also recorded” adds a separate entry of the source. Structures can show the parent of a compound that is named as a salt.

How the values were obtained:
[1] = system: UPEC strain CFT073; assay type: in vivo, Escherichia coli (in female CBA/J mice); conditions: compound 6 trial
Method: Four groups of eight female CBA/J mice were transurethrally inoculated with a target dose of ∼10^8 CFU of either CFT073 or CFT073ΔcpxA::cat. One group was treated with ciprofloxacin (2.5 mg/kg/dose dissolved in sterile distilled water) s.c. 12, 24, 36, 48, and 60 h after inoculation with CFT073 as described ([31]). The untreated CFT073 and CFT073ΔcpxA::cat inoculated groups were given the vehicle control s.c. at 12, 24, 36, 48, and 60 h after inoculation. The compound 6 treated group were given the drug (100 mg/kg) s.c. at 12, 36, and 60 h after inoculation with CFT073 and received the vehicle control s.c. at 24 and 48 h. The animals were sacrificed 4 h after the last treatment (64 h postinoculation) and CFU per milliliter or CFU per gram of tissue was determined in the urine, bladder, and kidneys.
Animal experiments were conducted according to the guidelines of the University of Michigan Institutional Animal Care and Use Committee. For the animal infection experiments, bacterial strains were cultured at 37°C in LB medium overnight with shaking ([30]). Female CBA/J mice (Jackson Laboratories, Bar Harbor, ME) were inoculated transurethrally with a target dose of ∼10^8 CFU of CFT073 or CFT073ΔcpxA::cat. Mice were subsequently treated 12 h later either with the vehicle, ciprofloxacin hydrochloride (PanReac AppliChem ITW Reagents; Jade Scientific), compound 1, compound 6, or compound 26 as described in Results and euthanized 4 h after the last treatment. Bacterial loads of each strain were calculated from the urine, bladder, and kidneys of mice as previously described; the limits of detection for these assays were 100 CFU/mL or 100 CFU/g of urine and tissue, respectively ([33]). Values of 50 CFU/mL or 50 CFU/g were assigned to specimens whose yields were below the limit of detection.
Due to the extreme skewness of the data, natural log transformation was used before the data were analyzed statistically. Descriptive statistics were calculated for all of the log-transformed variables. Statistical comparisons were done using analysis of variance (ANOVA) with follow-up pairwise tests adjusted for multiple comparisons using the Tukey procedure.

[2] = system: UPEC strain CFT073; assay type: in vivo, Escherichia coli (in female CBA/J mice)
[3] = Toxicity / clinical signs in mice; assay type: in vivo, female CBA/J mice; conditions: 100 mg/kg s.c. twice a day for 3 days
Method: We tested our initial hit, compound 1 ([31]) (Fig. 1), for toxicity in a murine model using criteria described in Materials and Methods. […] To test compound 1 for efficacy, female CBA/J mice were transurethrally inoculated with ∼1 × 10^8 CFU of UPEC strain CFT073; 12 h later, mice were treated with 100 mg/kg compound 1 (n = 10) or the vehicle control (n = 5) s.c. twice a day for 3 days and then sacrificed 4 h after the last dose. No effect was seen on the recovery of E. coli CFT073 in the urine, bladder, or kidneys (see Fig. S1 in the supplemental material). As compound 1 lacked efficacy, we aimed to improve the scaffold to enhance potency and eliminate the nitro group liability ([32]).
We developed a high-performance liquid chromatography-tandem mass spectrometry (HPLC-MS/MS) assay to measure compound 6 with a lower limit of quantification of 1 ng/mL. Single-dose PK parameters of compound 6 were determined in female CBA/J mice (n = 15) given 100 mg/kg s.c. dissolved in the vehicle. Blood was obtained from groups of 3 mice 1, 2, 4, 8, and 24 h postinjection.
Animal experiments were conducted according to the guidelines of the Indiana University School of Medicine Institutional Animal Care and Use Committee by the IU Simon Comprehensive Cancer Center In Vivo Therapeutics Core, a component of the Indiana Clinical Translational Science Institute. For the pilot toxicity study with compound 1, 4- to 6-week-old CBA/J female mice were obtained from Jackson Laboratory (Bar Harbor, ME) and were treated with compound 1 or the vehicle control twice a day for 3 days as described in the results. […] Toxicity was determined by the following criteria: deteriorating health-hunched posture, lack of grooming, failure to thrive, failure to eat and drink for >48 h, rapid loss of 15 to 20% body weight, inactivity with hunched posture, loss of righting reflex and inability to maintain upright posture, loss of general body condition with spine becoming visible, and dehiscence of wounds and/or evidence of infection at injection sites not responsive to veterinary treatment.

[4] = system: CpxRA; set-up: method as in PMID 31104993; conditions: β-galactosidase reporter assay in E. coli; read-out: mean 50% effective concentration (EC50), CpxRA activation; cited from earlier work

Row | Structure (SMILES) | CFU of CFT073 recovered in urine vs CFT073-inoculated vehicle control ([1]; 8 mice/group, compound 6 100 mg/kg s.c. at 12, 36, 60 h, ciprofloxacin 2.5 mg/kg/dose s.c. at 12, 24, 36, 48, 60 h, sacrifice 64 h) | CFU of CFT073 recovered in kidneys vs CFT073-inoculated vehicle control ([1]; same regimens) | recoverable CFU in urine vs CFT073-inoculated vehicle-treated controls ([2]; compound 26 trial, 8 mice/group, compound 26 100 mg/kg s.c. at 12, 36, 60 h, ciprofloxacin 2.5 mg/kg/dose s.c. at 12, 24, 36, 48, 60 h, sacrifice 64 h) | recoverable CFU in kidneys vs CFT073-inoculated vehicle-treated controls ([2]; compound 26 trial, same regimens) | duration of decreased activity after each dose [3] | toxicity ([3]; n = 3, observed 14 days) | EC50 [4] | recovery of E. coli CFT073 in the urine, bladder, or kidneys vs vehicle control ([2]; 100 mg/kg s.c. twice a day for 3 days from 12 h after ~1 × 10^8 CFU transurethral, sacrificed 4 h after last dose)
1 | O=C(O)c1cn(C2CC2)c2cc(N3CCNCC3)c(F)cc2c1=O [ciprofloxacin, ciprofloxacin hydrochloride, reference compound] | significantly reduced | significantly reduced | significantly lower | significantly lower |  |  |  | 
2 | NC1CCCc2c1[nH]c1ccc([N+](=O)[O-])cc21 (centres unmarked) [compound 1, 6-nitro-2,3,4,9-tetrahydro-1H-carbazol-1-amine] |  |  |  |  | 20 min | exhibited no toxicity | 24.8 µM | no significant; also recorded: No effect
